# Laboratory results reported in US20220143003A1, “COMPOSITIONS AND METHODS TO TREAT NON-ALCOHOLIC FATTY LIVER DISEASES (NAFLD)” (Coherus Biosciences, Inc., priority 2018, published 2022).
# Entries after “also recorded” stand apart in the source; their conditions may differ.
# Legend:
# Type in all cases: in vivo, male C57BL/6JRj mice
# DIO-NASH mice [1] = experiment: Liver steatosis (liver lipid) quantified by morphometry on HE slides; settings: terminal, group mean
# Method: (§1) For Hematoxylin & Eosin (HE) staining, slides were incubated in Mayer's Hematoxylin, washed in tap water, stained in Eosin Y solution, […], mounted with Pertex and allowed to dry before scanning.
# Quantitative assessment of steatosis is evaluated as follows. Steatosis is quantified on H&E stained slides by image analysis using the Visiomorph software (Visiopharm, Denmark). Visiomorph protocols are designed to analyze the virtual slides in two steps: 1. Crude detection of tissue at low magnification (1× objective). 2. Detection of steatosis (pink) and tissue (blue) at high magnification (20× objective). The quantitative estimate of steatosis is calculated as an area fraction (AF) according to the following formula:
# Terminal liver steatosis (i.e. liver lipid) was quantified by morphometry. Relative liver steatosis is denoted in % fractional area. Values expressed as mean of n=12-14+SEM.
# Total liver steatosis is denoted in milligrams (% fractional area multiplied with liver weight). Values expressed as mean of n=12-14+SEM.
# DIO-NASH mice [2] = experiment: NAFLD Activity Score (steatosis, lobular inflammation, ballooning), pre- to post-biopsy histopathological scoring; settings: for NAFLD activity score (NAS), effect in words: 12 weeks of treatment, compared to NASH vehicle+vehicle, summary of data; for Delta change in NAFLD activity score from pre- to post biopsy: group mean
# Method: Three weeks prior to study start, a pre-biopsy was performed to confirm NASH and for study inclusion of NASH-affected mice only. Briefly, mice were anesthetized with isoflurane (2-3%) in 100% oxygen. A small abdominal incision was made in the midline and the left lateral lobe of the liver exposed. A cone shaped wedge of liver tissue (approximately 50 mg) was excised from the distal portion of the lobe and fixated in 10% neutral buffered formalin (4% formaldehyde) for histopathological analyses. The cut surface of the liver was instantly electro-coagulated using bipolar coagulation (ERBE VIO 100 electrosurgical unit). The liver was returned to the abdominal cavity, the abdominal wall sutured, and the skin closed with staplers. For post-operative recovery, mice received carprofen (5 mg/ml-0.01 ml/10 g) administered subcutaneously on the day of operation and on post-operation day 1 and 2.
# as §1
# For scoring of NAFLD Activity Score (NAS) and fibrosis stage, HE and Sirius red stained liver sections, respectively, were scored by a histopathology specialist as outlined in Table 10 using the clinical criteria outlined by Kleiner et al. (2005). Total NAS score represents the sum of scores for steatosis, lobular inflammation, and ballooning degeneration scores, and ranges from 0-8.
# For steatosis score, percentage refers to percentage of hepatocytes affected by steatosis as evaluated on low to medium power examination.
# For lobular inflammation, inflammation is evaluated by counting the number of inflammatory foci per field using a 200× magnification (min. 5 fields per animal). A focus is defined as a cluster, not a row, of >3 inflammatory cells. Acidophil bodies are not included in this assessment, nor is portal inflammation.
# For hepatocellular ballooning degeneration, degenerated hepatocytes with a cleared cytoplasm, enlargement, swelling, rounding and reticulated cytoplasm were identified.
# Delta change in NAFLD activity score from pre-to post biopsy. Values expressed as mean of n=12-14+SEM.
# DIO-NASH mice [3] = experiment: EchoMRI body composition (MRI body weight, fat, lean and free water mass); settings: for Absolute fat tissue mass at week 11 / Absolute free water mass at week 11 / MRI body weight at week 11 / Relative fat tissue mass at week 11 / Relative lean tissue mass at week 11 / Relative free water mass (% of body weight): group mean, week 11
# Method: The body composition of the mice was assessed by an EchoMRI 3-1 Body composition analyzer (EchoMRI, US). Non-anaesthetised mice was placed in a plastic tube inside the MRI scanner for approximately 80 seconds. The body composition is expressed as fat mass, fat free mass (lean mass) and water.
# DIO-NASH mice [4] = experiment: Liver Galectin-3 IHC quantified by morphometry; settings: at termination, mean of n=12-14; for Total terminal liver Galectin-3 (Average): % fractional area multiplied with liver weight; for Relative terminal liver Galectin-3 (Average): morphometry
# Method: Protein markers of fibrosis (Col1a1), fibrogenesis (α-SMA) and inflammation (Gal-3) were assessed by immunohistochemistry. α-SMA and collagen type I increase in regulation of quiescent hepatic stellate cell activation into myofibroblast-like cells where activated hepatic stellate cells are the main collagen producing cells in the liver (Carpino et al 2005, Hou and Syn 2018) whereas Gal-3 is involved in mediating inflammatory response and considered as a macrophage activation marker (Sciacchitano et al, 2018). For morphometric quantification of liver Col1a1 (using antibody from Southern Biotech, Cat. #1310-01), alpha-smooth muscle actin (α-SMA; using antibody from Abcam, Cat. #Ab124964) and Galectin-3 (using antibody from Biolegend, Cat. #125402), IHC staining was performed using standard procedures. Briefly, after antigen retrieval and blocking of endogenous peroxidase activity, slides were incubated with primary antibody. For all IHC stains, the primary antibody was detected using a polymeric HRP-linker antibody conjugate and visualized using DAB as chromogen. Finally, sections were counterstained in hematoxylin and cover-slipped before scanning.
# Quantitative assessment of immunoreactivity is evaluated as follows. IHC-positive staining is quantified by image analysis using the Visiomorph software (Visiopharm, Denmark). Visiomorph protocols are designed to analyze the virtual slides in two steps: 1. Crude detection of tissue at low magnification (1× objective). The liver capsule is excluded. 2. Detection of IHC-positive staining (e.g. green; collagen 1 IHC), tissue (e.g. red) and fat (e.g. pink) at high magnification (10×objective). The quantitative estimate of IHC-positive staining is calculated as an area fraction (AF) according to the following formula:
# Terminal liver Galectin-3 was quantified by morphometry. Relative terminal liver Galectin-3 (% fractional area) is expressed as mean of n=12-14+SEM.
# Total terminal Galectin-3 values are in milligrams (% fractional area multiplied with liver weight) and expressed as mean of n=12-14+SEM.
# [5] = CHS-131 High dose (alone or combined)
# [6] = DIO-NASH mice, compared to vehicle only, non-significant
# [7] = DIO-NASH mice, compared to DIO mice administered vehicle only
# [8] = DIO-NASH mice, CHS-131 High 30 mg/kg, empagliflozin 10 mg/kg, elafibranor 30 mg/kg PO, liraglutide 0.4 mg/kg SC, QD
# [9] = DIO-NASH mice, CHS-131 Low 10 mg/kg PO QD
compound,measurement,setting,value
O=S(=O)(Nc1cc(Cl)c(Oc2cnc3ccccc3c2)c(Cl)c1)c1ccc(Cl)cc1Cl [CHS-131],Relative liver steatosis (liver lipid) by morphometry,DIO-NASH mice [1]; [5],23.1 % fractional area
same,Total liver steatosis (% fractional area multiplied with liver weight),DIO-NASH mice [1]; [5],758 milligrams
same,Relative liver steatosis (liver lipid) by morphometry,DIO-NASH mice [1]; CHS-131 Low dose,26.4 % fractional area
same,Total liver steatosis (% fractional area multiplied with liver weight),DIO-NASH mice [1]; CHS-131 Low dose,826 milligrams
same,"NAFLD activity score (NAS), effect in words",DIO-NASH mice [2]; DIO-NASH mice,reduced NAS; also recorded: significant improvement
same,Improvement of average NAFLD activity score (NAS) post-baseline,"DIO-NASH mice [2]; DIO-NASH mice, CHS-131 monotherapy, significant, on average",more than 1 unit
same,Improvement of ballooning,DIO-NASH mice [2]; [6],~10%
same,Improvement of steatosis,DIO-NASH mice [2]; [6],approximately 30%
same,Improvement of lobular inflammation,"DIO-NASH mice [2]; DIO-NASH mice, compared to vehicle only, non-significant (p=0.07)",50%
same,NAFLD score: mice with improvement,"DIO-NASH mice [2]; DIO-NASH mice, post- vs pre-study biopsy, significant",7/13
same,Delta change in NAFLD activity score from pre- to post biopsy,DIO-NASH mice [2]; [5],−0.77
same,Delta change in NAFLD activity score from pre- to post biopsy,DIO-NASH mice [2]; CHS-131 Low dose,−0.23
same,"Fat tissue mass (fat mass), effect in words",DIO-NASH mice [3]; [7],reduced significantly
same,"Free water mass, effect in words",DIO-NASH mice [3]; [7],remained stable
same,"Relative fat tissue mass, effect in words",DIO-NASH mice [3]; [7],reduced
same,Reduction of % fat mass as % of baseline body weight,"DIO-NASH mice [3]; DIO-NASH mice, compared to vehicle alone, CHS-131 dose not stated",20%
same,Absolute fat tissue mass at week 11,DIO-NASH mice [3]; [8],6.9 g
same,Absolute free water mass at week 11,DIO-NASH mice [3]; [8],0.0946 g
same,MRI body weight at week 11,DIO-NASH mice [3]; [8],38.2 g
same,Relative fat tissue mass at week 11,DIO-NASH mice [3]; [8],17.8 % of body weight
same,Relative lean tissue mass at week 11,DIO-NASH mice [3]; [8],48.1 % of body weight
same,Absolute fat tissue mass at week 11,DIO-NASH mice [3]; [9],7.07 g
same,Absolute free water mass at week 11,DIO-NASH mice [3]; [9],0.165 g
same,MRI body weight at week 11,DIO-NASH mice [3]; [9],38.3 g
same,Relative fat tissue mass at week 11,DIO-NASH mice [3]; [9],18.4 % of body weight
same,Relative lean tissue mass at week 11,DIO-NASH mice [3]; [9],48.5 % of body weight
same,Relative free water mass (% of body weight),DIO-NASH mice [3]; [5],0.249 % of body weight
same,Relative free water mass (% of body weight),DIO-NASH mice [3]; CHS-131 Low dose,0.429 % of body weight
same,Total terminal liver Galectin-3 (Average),DIO-NASH mice [4]; CHS-131 High dose + Vehicle,90.6 milligrams
same,Relative terminal liver Galectin-3 (Average),DIO-NASH mice [4]; CHS-131 High dose + Vehicle,2.79 % fractional area
same,Total terminal liver Galectin-3 (Average),DIO-NASH mice [4]; CHS-131 Low dose + Vehicle,93.8 milligrams
same,Relative terminal liver Galectin-3 (Average),DIO-NASH mice [4]; CHS-131 Low dose + Vehicle,2.95 % fractional area
"CSc1ccc(C(=O)/C=C/c2cc(C)c(OC(C)(C)C(=O)O)c(C)c2)cc1 [Elafibranor, reference compound]",Relative liver steatosis (liver lipid) by morphometry,DIO-NASH mice [1]; [5],7.21 % fractional area
same,Total liver steatosis (% fractional area multiplied with liver weight),DIO-NASH mice [1]; [5],322 milligrams
same,Delta change in NAFLD activity score from pre- to post biopsy,DIO-NASH mice [2]; [5],−2.00
same,Absolute fat tissue mass at week 11,DIO-NASH mice [3]; [8],3.73 g
same,Absolute free water mass at week 11,DIO-NASH mice [3]; [8],0.0923 g
same,MRI body weight at week 11,DIO-NASH mice [3]; [8],32.5 g
same,Relative fat tissue mass at week 11,DIO-NASH mice [3]; [8],11.3 % of body weight
same,Relative lean tissue mass at week 11,DIO-NASH mice [3]; [8],52.6 % of body weight
same,Relative free water mass (% of body weight),DIO-NASH mice [3]; [5],0.292 % of body weight
same,Total terminal liver Galectin-3 (Average),DIO-NASH mice [4],104 milligrams
same,Relative terminal liver Galectin-3 (Average),DIO-NASH mice [4],2.43 % fractional area
"OC[C@H]1O[C@@H](c2ccc(Cl)c(Cc3ccc(O[C@H]4CCOC4)cc3)c2)[C@H](O)[C@@H](O)[C@@H]1O [Empagliflozin, reference compound]",Relative liver steatosis (liver lipid) by morphometry,DIO-NASH mice [1]; [5],27.2 % fractional area
same,Total liver steatosis (% fractional area multiplied with liver weight),DIO-NASH mice [1]; [5],923 milligrams
same,"NAFLD activity score (NAS), effect in words",DIO-NASH mice [2]; DIO-NASH mice,positive trend for improvement
same,Delta change in NAFLD activity score from pre- to post biopsy,DIO-NASH mice [2]; [5],−0.31
same,Absolute fat tissue mass at week 11,DIO-NASH mice [3]; [8],7.81 g
same,Absolute free water mass at week 11,DIO-NASH mice [3]; [8],0.182 g
same,MRI body weight at week 11,DIO-NASH mice [3]; [8],40.1 g
same,Relative fat tissue mass at week 11,DIO-NASH mice [3]; [8],19.4 % of body weight
same,Relative lean tissue mass at week 11,DIO-NASH mice [3]; [8],47.1 % of body weight
same,Relative free water mass (% of body weight),DIO-NASH mice [3]; [5],0.458 % of body weight
same,Total terminal liver Galectin-3 (Average),DIO-NASH mice [4],99.9 milligrams
same,Relative terminal liver Galectin-3 (Average),DIO-NASH mice [4],2.9 % fractional area
